Measured values published in US20260256716A1, “COMPOSITIONS AND METHODS OF USE THEREOF” (Board of Supervisors of Louisiana State University and …, priority 2023, published 2026).

Test system: ARPE cells
Experiment: Mitochondrial function and ATP production by Seahorse in ARPE cells
Format: cell-based, human
Settings: 10 fold dilutions 100 nM to 0.001 nM; 48 hours
Experimental: Representative 5-HT2A Receptor Agonist, R-DOI Increases Mitochondrial Function And ATP Production at low nM and sub nanomolar concentrations thereby reversing adverse processes that underlie development and progression of the Pathophysiology of Age-Associated Ocular and Neurodegenerative Diseases. ARPE cells were plated and treated with 10 fold dilutions of R-DOI from 100 nM to 0.001 nM. 48 hours post treatment, mitochondrial function and ATP production was assessed by Seashorse.

Structure (SMILES): COc1cc(C[C@@H](C)N)c(OC)cc1I (single isomer, unassigned) [R-DOI, R enantiomer 2,5-Dimethoxy-4-iodoamphetamine]
- ATP production and mitochondrial respiration: increased ATP production and mitochondrial respiration
